From article PMC4506051, “Pharmacokinetic Profiles of Active Ingredients and Its Metabolites Derived from Rikkunshito, a Ghrelin Enhancer, in Healthy Japanese Volunteers: A Cross-Over, Randomized Study” (PLoS ONE, 2015)

Experiments:
[1] = Stability of ingredients in gastric pH solution (pH 1.2, 37°C); type: physicochemical
Experimental: Rikkunshito gradually dissolved in acidic solution (pH 1.2) at 37°C, and the concentration of atractylodin after adding 0.25, 0.5, 1, and 2 h was measured by gas chromatography–mass spectrometry.

[2] = Exploratory trial: plasma concentration of rikkunshito ingredients after single oral rikkunshito 7.5 g; type: in vivo
Experimental: A random sequence was generated using a computer. The safety endpoint was evaluated in all volunteers.
(§1) In the first exploratory trial, 20-mL blood samples were collected from the cutaneous vein in the subjects’ forearm via a blood sampling tube that contained heparin at 0 (preadministration), 0.5, 1, 2, 4, and 8 h after a single oral administration of rikkunshito (Lot E24652). The dose of rikkunshito used in this trial was 7.5 g/day, which is the clinical daily dose, to widely explore rikkunshito-derived ingredients that enter the blood. Along with plasma, urine samples were collected at three points: between dinner and bedtime (preadministration), between 0 and 4 h after administration, and between 4 and 8 h after administration. The blood was immediately centrifuged at 1700 ×g for 10 min to obtain plasma. Plasma and urine fractions were stored at −80°C or lower until analysis.
(§2) For quantification of synephrine, 5 µL of standard solution or methanol was added to 100 µL plasma or urine samples followed by mixing. Ten microliters of erythromycin [internal standard (IS)] solution was added to the solutions followed by mixing and centrifugation (20,400 ×g, 5 min, 4°C). The supernatants were loaded onto an Ostro 96-well plate (Waters) and centrifuged (1500 ×g, 3 min, 4°C) followed by injection into the LC–MS/MS.
(§3) For quantification of 30 ingredients other than atractylodin and synephrine, 25 µL of standard solution or methanol was added to 500 µL plasma or urine samples followed by mixing. Atractylenolide III or digoxin (IS) solution (50 μL) was added to the solutions followed by mixing. For urine, 400 µL of blank plasma was added to the solutions. Ammonium acetate solution (100 mM, 100 or 400 µL) was added to the solutions followed by mixing. For enzymatic treatment, plasma and urine samples were incubated with β-glucuronidase (100 units in 100 mM ammonium acetate) for 2 h at 37°C. A solid-phase cartridge (OASIS HLB, 30 mg/1cc, Waters) was conditioned with methanol and 10 mM ammonium acetate solution, and the samples were loaded onto the cartridge. The cartridge was washed water : methanol (9:1, v/v), and 1.5 mL of methanol and 30 µL of propylene glycol were added to the cartridge to elute the analytes. The mixtures were dried at 25°C under a stream of nitrogen gas. Furthermore, 100 μL of 10 mM ammonium acetate : methanol (8:2, v/v) was added to the dried samples followed by mixing and sonication. The solutions were filtered (0.22 µm) and followed by injection into the LC–MS/MS system. […] Those analytical conditions are summarized in S2 Table and S3 Table.

[3] = Exploratory trial: amount of rikkunshito ingredients in urine; type: in vivo, human; details: mean ± S.D., n = 4; for Amount in urine, 0–4 h: 0–4 h after single oral rikkunshito 7.5 g; for Amount in urine, 4–8 h: 4–8 h after single oral rikkunshito 7.5 g; for Amount in urine, Pre: preadministration (between dinner and bedtime)
Experimental: as §1, §2, §3

[4] = rikkunshito in acidic solution (pH 1.2) at 37°C, 0.5 h
[5] = rikkunshito in acidic solution (pH 1.2) at 37°C, 1 h
[6] = rikkunshito in acidic solution (pH 1.2) at 37°C, 2 h

## CC(C)=CCC[C@](C)(O[C@@H]1O[C@H](CO[C@@H]2O[C@H](CO)[C@@H](O)[C@H](O)[C@H]2O)[C@@H](O)[C@H](O)[C@H]1O)[C@H]1CC[C@]2(C)[C@@H]1[C@H](O)C[C@@H]1[C@@]3(C)CC[C@H](O[C@@H]4O[C@H](CO)[C@@H](O)[C@H](O)[C@H]4O[C@@H]4O[C@H](CO)[C@@H](O)[C@H](O)[C@H]4O)C(C)(C)[C@@H]3CC[C@]12C [Ginsenoside Rb1]
[1]; 0.5 h, pH 1.2
  Stability in gastric pH solution, Quantitative value: 297 ng/mL
[1]; 1 h, pH 1.2
  Stability in gastric pH solution, Quantitative value: 202 ng/mL
[1]; 2 h, pH 1.2
  Stability in gastric pH solution, Quantitative value: 86.4 ng/mL
[2]; human, in vivo, po
  concentration at 4 h: 0.175 ± 0.118 ng/mL
[2]; in vivo, po
  Plasma concentration, 0 h: BQL
  Plasma concentration, 0.5 h: BQL
  Plasma concentration, 1 h: BQL
  Plasma concentration, 2 h: BQL
  Plasma concentration, 8 h: BQL

## CC(C)=CCC[C@](C)(O[C@@H]1O[C@H](CO[C@@H]2OC[C@H](O)[C@H](O)[C@H]2O)[C@@H](O)[C@H](O)[C@H]1O)[C@H]1CC[C@]2(C)[C@@H]1[C@H](O)C[C@@H]1[C@@]3(C)CC[C@H](O[C@@H]4O[C@H](CO)[C@@H](O)[C@H](O)[C@H]4O[C@@H]4O[C@H](CO)[C@@H](O)[C@H](O)[C@H]4O)C(C)(C)[C@@H]3CC[C@]12C [Ginsenoside Rb2]
[1]; 0.5 h, pH 1.2
  Stability in gastric pH solution, Quantitative value: 275 ng/mL
[1]; 1 h, pH 1.2
  Stability in gastric pH solution, Quantitative value: 168 ng/mL
[1]; 2 h, pH 1.2
  Stability in gastric pH solution, Quantitative value: 77.3 ng/mL
[3]
  Amount in urine, 0–4 h: 202 ± 202 ng
  Amount in urine, 4–8 h: 84.6 ± 90.1 ng
  Amount in urine, Pre: BQL

## CC(C)=CCC[C@](C)(O[C@@H]1O[C@H](CO[C@@H]2O[C@@H](CO)[C@H](O)[C@H]2O)[C@@H](O)[C@H](O)[C@H]1O)[C@H]1CC[C@]2(C)[C@@H]1[C@H](O)C[C@@H]1[C@@]3(C)CC[C@H](O[C@@H]4O[C@H](CO)[C@@H](O)[C@H](O)[C@H]4O[C@@H]4O[C@H](CO)[C@@H](O)[C@H](O)[C@H]4O)C(C)(C)[C@@H]3CC[C@]12C [Ginsenoside Rc]
[1]; 0.5 h, pH 1.2
  Stability in gastric pH solution, Quantitative value: 188 ng/mL
[1]; 1 h, pH 1.2
  Stability in gastric pH solution, Quantitative value: 115 ng/mL
[1]; 2 h, pH 1.2
  Stability in gastric pH solution, Quantitative value: 39.3 ng/mL
[2]; human, in vivo, po
  concentration at 4 h: 0.0303 ± 0.0605 ng/mL
[2]; in vivo, po
  Plasma concentration, 0 h: BQL
  Plasma concentration, 0.5 h: BQL
  Plasma concentration, 1 h: BQL
  Plasma concentration, 2 h: BQL
  Plasma concentration, 8 h: BQL

## CC(C)=CCC[C@](C)(O[C@@H]1O[C@H](CO)[C@@H](O)[C@H](O)[C@H]1O)[C@H]1CC[C@]2(C)[C@@H]1[C@H](O)C[C@@H]1[C@@]3(C)CC[C@H](O[C@@H]4O[C@H](CO)[C@@H](O)[C@H](O)[C@H]4O[C@@H]4O[C@H](CO)[C@@H](O)[C@H](O)[C@H]4O)C(C)(C)[C@@H]3CC[C@]12C [Ginsenoside Rd]
[1]; 0.5 h, pH 1.2
  Stability in gastric pH solution, Quantitative value: 98.5 ng/mL
[1]; 1 h, pH 1.2
  Stability in gastric pH solution, Quantitative value: 68.1 ng/mL
[1]; 2 h, pH 1.2
  Stability in gastric pH solution, Quantitative value: 20.3 ng/mL
[2]; 0 h (preadministration), single oral rikkunshito 7.5 g, mean ± S.D., n = 4
  Plasma concentration, 0 h: BQL
[2]; 0.5 h after single oral rikkunshito 7.5 g, mean ± S.D., n = 4
  Plasma concentration, 0.5 h: BQL
[2]; 2 h after single oral rikkunshito 7.5 g, mean ± S.D., n = 4
  Plasma concentration, 2 h: BQL
[2]; 4 h after single oral rikkunshito 7.5 g, mean ± S.D., n = 4
  Plasma concentration, 4 h: BQL
[2]; 8 h after single oral rikkunshito 7.5 g, mean ± S.D., n = 4
  Plasma concentration, 8 h: BQL
[2]; human, in vivo, 1 h after single oral rikkunshito 7.5 g, mean ± S.D., n = 4
  concentration at 1 h: 0.0308 ± 0.0615 ng/mL

## CC(C)=CCC[C@](C)(O[C@@H]1O[C@H](CO)[C@@H](O)[C@H](O)[C@H]1O)[C@H]1CC[C@]2(C)[C@@H]1[C@H](O)C[C@@H]1[C@@]3(C)CC[C@H](O)C(C)(C)[C@@H]3[C@@H](O[C@@H]3O[C@H](CO)[C@@H](O)[C@H](O)[C@H]3O[C@@H]3O[C@@H](C)[C@H](O)[C@@H](O)[C@H]3O)C[C@]12C [Ginsenoside Re]
[1]; 0.5 h, pH 1.2
  Stability in gastric pH solution, Quantitative value: 96.7 ng/mL
[1]; 1 h, pH 1.2
  Stability in gastric pH solution, Quantitative value: 58.4 ng/mL
[1]; 2 h, pH 1.2
  Stability in gastric pH solution, Quantitative value: 23.7 ng/mL
[3]
  Amount in urine, 0–4 h: BQL
  Amount in urine, 4–8 h: 30.6 ± 61.2 ng
  Amount in urine, Pre: BQL

## CC(C)=CCC[C@](C)(O)[C@H]1CC[C@]2(C)[C@@H]1[C@H](O)C[C@@H]1[C@@]3(C)CC[C@H](O)C(C)(C)[C@@H]3[C@@H](O[C@@H]3O[C@H](CO)[C@@H](O)[C@H](O)[C@H]3O[C@@H]3O[C@H](CO)[C@@H](O)[C@H](O)[C@H]3O)C[C@]12C [Ginsenoside Rf]
[1]; [4]
  Stability in gastric pH solution, Quantitative value: 190 ng/mL
[1]; [5]
  Stability in gastric pH solution, Quantitative value: 159 ng/mL
[1]; [6]
  Stability in gastric pH solution, Quantitative value: 113 ng/mL
[3]
  Amount in urine, 0–4 h: 48.2 ± 64.4 ng
  Amount in urine, 4–8 h: 23.0 ± 20.4 ng
  Amount in urine, Pre: BQL

## CC(C)=CCC[C@](C)(O[C@@H]1O[C@H](CO)[C@@H](O)[C@H](O)[C@H]1O)[C@H]1CC[C@]2(C)[C@@H]1[C@H](O)C[C@@H]1[C@@]3(C)CC[C@H](O)C(C)(C)[C@@H]3[C@@H](O[C@@H]3O[C@H](CO)[C@@H](O)[C@H](O)[C@H]3O)C[C@]12C [Ginsenoside Rg1]
[1]; 0.5 h, pH 1.2
  Stability in gastric pH solution, Quantitative value: 174 ng/mL
[1]; 1 h, pH 1.2
  Stability in gastric pH solution, Quantitative value: 118 ng/mL
[1]; 2 h, pH 1.2
  Stability in gastric pH solution, Quantitative value: 41.6 ng/mL
[3]
  Amount in urine, 0–4 h: 620 ± 331 ng
  Amount in urine, 4–8 h: 638 ± 319 ng
  Amount in urine, Pre: BQL

## CC1(C)[C@@H](O[C@@H]2O[C@H](C(=O)O)[C@@H](O)[C@H](O)[C@H]2O)CC[C@]2(C)[C@H]3C(=O)C=C4[C@@H]5C[C@@](C)(C(=O)O)CC[C@]5(C)CC[C@@]4(C)[C@]3(C)CC[C@@H]12 [Glycyrrhetic acid 3-O-glucuronide, Glycyrrhetinic acid 3-O-glucuronide]
[3]
  Amount in urine, 0–4 h: BQL
  Amount in urine, 4–8 h: 6.94 ± 13.9 ng
  Amount in urine, Pre: BQL
[2]; in vivo, po
  Plasma concentration, 0 h: BQL
  Plasma concentration, 0.5 h: BQL
  Plasma concentration, 1 h: 0.0448 ± 0.0895 ng/mL
  Plasma concentration, 2 h: 0.244 ± 0.0735 ng/mL
  Plasma concentration, 4 h: 0.327 ± 0.0656 ng/mL
  Plasma concentration, 8 h: 0.247 ± 0.0622 ng/mL

## CC1(C)CC[C@]2(C(=O)O)CC[C@]3(C)C(=CC[C@@H]4[C@@]5(C)CC[C@H](O)C(C)(C)[C@@H]5CC[C@]43C)[C@@H]2C1 [Oleanolic acid]
[1]; [4]
  Stability in gastric pH solution, Quantitative value: 3.61 ng/mL
[1]; [5]
  Stability in gastric pH solution, Quantitative value: 3.54 ng/mL
[1]; [6]
  Stability in gastric pH solution, Quantitative value: 3.28 ng/mL
[2]; human, in vivo, po
  concentration at 2 h: 0.198 ± 0.395 ng/mL
  concentration at 4 h: 0.903 ± 0.983 ng/mL
  concentration at 8 h: 1.12 ± 0.89 ng/mL
[2]; human, in vivo, rikkunshito 7.5 g, four subjects, highest mean concentration over 0–8 h, read-out: C max in plasma (exploratory trial)
  Cmax: 1.12 ng/mL
[2]; in vivo, po
  Plasma concentration, 0 h: BQL
  Plasma concentration, 0.5 h: BQL
  Plasma concentration, 1 h: BQL

## COc1ccc(-c2cc(=O)c3c(OC)c(OC)c(OC)c(OC)c3o2)cc1 [Tangeretin]
[1]; 0.5 h, pH 1.2
  Stability in gastric pH solution, Quantitative value: 5.50 ng/mL
[1]; 1 h, pH 1.2
  Stability in gastric pH solution, Quantitative value: 6.62 ng/mL
[1]; 2 h, pH 1.2
  Stability in gastric pH solution, Quantitative value: 5.95 ng/mL
[2]; human, in vivo, po
  concentration at 0.5 h: 0.00573 ± 0.0115 ng/mL
[2]; in vivo, po
  Plasma concentration, 0 h: BQL
  Plasma concentration, 1 h: BQL
  Plasma concentration, 2 h: BQL
  Plasma concentration, 4 h: BQL
  Plasma concentration, 8 h: BQL

## CCCCCCCCC[C@H](O)CC(=O)CCc1ccc(O)c(OC)c1 [[10]-gingerol, [10]-Gingerol]
[1]; [4]
  Stability in gastric pH solution, Quantitative value: 8.07 ng/mL
[1]; [5]
  Stability in gastric pH solution, Quantitative value: 7.53 ng/mL
[1]; [6]
  Stability in gastric pH solution, Quantitative value: 7.62 ng/mL

## CC(C)=CCC[C@](C)(O)[C@H]1CC[C@]2(C)[C@@H]1[C@H](O)C[C@@H]1[C@@]3(C)CC[C@H](O)C(C)(C)[C@@H]3[C@@H](O[C@@H]3O[C@H](CO)[C@@H](O)[C@H](O)[C@H]3O[C@@H]3O[C@@H](C)[C@H](O)[C@@H](O)[C@H]3O)C[C@]12C [ginsenoside Rg2, Ginsenoside Rg2]
[1]; [4]
  Stability in gastric pH solution, Quantitative value: 121 ng/mL
[1]; [5]
  Stability in gastric pH solution, Quantitative value: 157 ng/mL
[1]; [6]
  Stability in gastric pH solution, Quantitative value: 126 ng/mL
